In brackets after ≈: the same amount, converted by molar mass.
Experiments:
Enterobacter cloacae [1] = assay: Antibacterial activity against polymyxin-susceptible Enterobacter cloacae FADD1-EC003 clinical isolates assessed as reduction in bacterial growth by broth microdilution method; assay type: functional
Klebsiella pneumoniae [2] = assay: Antibacterial activity against Carbapenem-resistant Klebsiella pneumoniae FADD1-KP032 clinical isolates assessed as reduction in bacterial growth by broth microdilution method; assay type: functional
[3] = Acute toxicity in Swiss mouse assessed as maximum tolerated dose administered intravenously measured over 24 hrs; details: in vivo, route iv
Klebsiella pneumoniae [4] = assay: Antibacterial activity against Carbapenem-resistant Klebsiella pneumoniae FADD1-KP065 clinical isolates assessed as reduction in bacterial growth by broth microdilution method; assay type: functional
Pseudomonas aeruginosa [5] = assay: Antibacterial activity against Carbapenem-resistant Pseudomonas aeruginosa FADD1-PA022 clinical isolates assessed as reduction in bacterial growth by broth microdilution method; assay type: functional
Klebsiella pneumoniae [6] = assay: Antibacterial activity against polymyxin-susceptible Klebsiella pneumoniae ATCC 700721 clinical isolates assessed as reduction in bacterial growth by broth microdilution method; assay type: functional
[7] = Nephrotoxicity in Swiss mouse assessed as histopathological changes in kidney by measuring semiquantitative score at 12 mg/kg, sc administered as free base every 2 hrs for 6 doses and measured at 20 hrs; assay type: toxicity, organism-based; details: in vivo
Acinetobacter baumannii [8] = assay: Antibacterial activity against polymyxin-susceptible Acinetobacter baumannii ATCC 17978 clinical isolates assessed as reduction in bacterial growth by broth microdilution method; assay type: functional
Acinetobacter baumannii [9] = assay: Antibacterial activity against polymyxin-susceptible Acinetobacter baumannii ATCC 19606 clinical isolates assessed as reduction in bacterial growth by broth microdilution method; assay type: functional
Enterobacter cloacae [10] = assay: Antibacterial activity against polymyxin-susceptible Enterobacter cloacae FADD1-EC001 clinical isolates assessed as reduction in bacterial growth by broth microdilution method; assay type: functional
Pseudomonas aeruginosa [11] = assay: Antibacterial activity against polymyxin-susceptible Pseudomonas aeruginosa ATCC 27853 clinical isolates assessed as reduction in bacterial growth by broth microdilution method; assay type: functional
Pseudomonas aeruginosa [12] = assay: Antibacterial activity against polymyxin-susceptible Pseudomonas aeruginosa FADD1-PA025 clinical isolates assessed as reduction in bacterial growth by broth microdilution method; assay type: functional
Pseudomonas aeruginosa [13] = assay: Antibacterial activity against Carbapenem-resistant Pseudomonas aeruginosa FADD1-PA001 clinical isolates assessed as reduction in bacterial growth by broth microdilution method; assay type: functional
Klebsiella pneumoniae [14] = assay: Antibacterial activity against Carbapenem-resistant Klebsiella pneumoniae FADD1-KP022 clinical isolates assessed as reduction in bacterial growth by broth microdilution method; assay type: functional
Acinetobacter baumannii [15] = assay: Antibacterial activity against Carbapenem-resistant Acinetobacter baumannii FADD1-AB030 clinical isolates assessed as reduction in bacterial growth by broth microdilution method; assay type: functional
Acinetobacter baumannii [16] = assay: Antibacterial activity against Carbapenem-resistant Acinetobacter baumannii FADD1-AB034 clinical isolates assessed as reduction in bacterial growth by broth microdilution method; assay type: functional
Enterobacter cloacae [17] = assay: Antibacterial activity against polymyxin-susceptible Enterobacter cloacae FADD1-EC006 clinical isolates assessed as reduction in bacterial growth by broth microdilution method; assay type: functional
Pseudomonas aeruginosa [18] = assay: Antibacterial activity against polymyxin-susceptible Pseudomonas aeruginosa FADD1-PA038 clinical isolates assessed as reduction in bacterial growth by broth microdilution method; assay type: functional
Klebsiella pneumoniae [19] = assay: Antibacterial activity against Carbapenem-resistant Klebsiella pneumoniae BM1 clinical isolates assessed as reduction in bacterial growth by broth microdilution method; assay type: functional

SMILES | MIC (Enterobacter cloacae [1]) | MIC (Klebsiella pneumoniae [2]) | MTD at 24 h [3] | MIC (Klebsiella pneumoniae [4]) | MIC (Pseudomonas aeruginosa [5]) | MIC (Klebsiella pneumoniae [6]) | Activity [7] | MIC (Acinetobacter baumannii [8]) | MIC (Acinetobacter baumannii [9]) | MIC (Enterobacter cloacae [10]) | MIC (Pseudomonas aeruginosa [11]) | MIC (Pseudomonas aeruginosa [12]) | MIC (Pseudomonas aeruginosa [13]) | MIC (Klebsiella pneumoniae [14]) | MIC (Acinetobacter baumannii [15]) | MIC (Acinetobacter baumannii [16]) | MIC (Enterobacter cloacae [17]) | MIC (Pseudomonas aeruginosa [18]) | MIC (Klebsiella pneumoniae [19])
CC[C@H](C)CCCCC(=O)N[C@@H](CCN)C(=O)N[C@H](C(=O)N[C@@H](CCN)C(=O)N[C@H]1CCNC(=O)[C@H]([C@H](C)O)NC(=O)[C@H](CCN)NC(=O)[C@H](CCN)NC(=O)[C@H](CC(C)C)NC(=O)[C@@H](Cc2ccccc2)NC(=O)[C@H](CCN)NC1=O)[C@@H](C)O | 1 µg/mL (≈ 0.831 µM) | 2 µg/mL (≈ 1.66 µM) | 4.1 mg/kg | 0.5 µg/mL (≈ 0.415 µM) | 1 µg/mL (≈ 0.831 µM) | 1 µg/mL (≈ 0.831 µM) | 0 | 4 µg/mL (≈ 3.32 µM) | 8 µg/mL (≈ 6.65 µM) | 2 µg/mL (≈ 1.66 µM) | 1 µg/mL (≈ 0.831 µM) | 2 µg/mL (≈ 1.66 µM) | 1 µg/mL (≈ 0.831 µM) | 0.25 µg/mL (≈ 0.208 µM) | 2 µg/mL (≈ 1.66 µM) | 2 µg/mL (≈ 1.66 µM) | 8 µg/mL (≈ 6.65 µM) | 4 µg/mL (≈ 3.32 µM) | 1 µg/mL (≈ 0.831 µM)
CC[C@H](C)CCCCC(=O)N[C@@H](CCN)C(=O)N[C@H](C(=O)N[C@@H](CCN)C(=O)N[C@H]1CCNC(=O)[C@H](C)NC(=O)[C@H](CCN)NC(=O)[C@H](CCN)NC(=O)[C@H](CC(C)C)NC(=O)[C@@H](Cc2ccccc2)NC(=O)[C@H](CCN)NC1=O)[C@@H](C)O | 1 µg/mL (≈ 0.852 µM) | 1 µg/mL (≈ 0.852 µM) | 2.7 mg/kg | 0.5 µg/mL (≈ 0.426 µM) | 1 µg/mL (≈ 0.852 µM) | 4 µg/mL (≈ 3.41 µM) | 0 | 1 µg/mL (≈ 0.852 µM) | 1 µg/mL (≈ 0.852 µM) | 2 µg/mL (≈ 1.7 µM) | 1 µg/mL (≈ 0.852 µM) | 1 µg/mL (≈ 0.852 µM) | 1 µg/mL (≈ 0.852 µM) | 0.5 µg/mL (≈ 0.426 µM) | 1 µg/mL (≈ 0.852 µM) | 1 µg/mL (≈ 0.852 µM) | 4 µg/mL (≈ 3.41 µM) | 8 µg/mL (≈ 6.82 µM) | 2 µg/mL (≈ 1.7 µM)
